The record followed here is publication PMC10766964, “Copper-catalyzed synthesis of pyrazolo[1,5-a]pyrimidine based triazole-linked glycohybrids: mechanistic insights and bio-applications” (Scientific Reports, 2024).

The experiment has as its system MDA-MB-231 (human breast cancer) cell line. Briefly: MTT cell viability assay in MDA-MB-231 cells. The class given is cell-based. Conditions: 72 h. The protocol:
Thus, we screened the synthesized library of pyrazolo[1,5-a]pyrimidin-7-ols 4a–4i. Anticancer activity (in terms of growth inhibition/decreased cell viability with respect to control) of all synthesized compounds (n = 9) was investigated by MTT assay in MDA-MB-231 (human breast cancer) cell line at different concentrations for 72 h. […] Thus, it was aimed to investigate the anticancer activity of a synthesized library of triazole-linked glycohybrids of pyrazolo[1,5-a]pyrimidines. […] The MTT assay was used to investigate the anticancer activity of twenty-seven synthesized compounds on the growth inhibition and decrement in cell viability of MDA-MB-231 (human breast cancer). Different concentrations were tested for 72 h, and the results were compared to a control. MDA-MB-231, a human breast cancer cell line, was cultured under standard conditions. Specifically, they were grown in Dulbecco’s Modified Eagle’s Medium (DMEM) supplemented with 10% heat-inactivated Fetal Bovine Serum (FBS) and 1% penicillin–streptomycin. The cells were maintained as a monolayer in a 100 mm culture plate and were used for experiments before reaching their 8th passage. Subculturing was performed every third-day using trypsin EDTA treatment. All incubation and maintenance procedures were carried out in a humidified CO2 incubator at 37 °C. To evaluate cell viability, the MTT assay was conducted following standard procedures. After 72 h of cell incubation with or without each compound, cell viability was assessed using MTT (3-(4,5-dimethylthiazol-2-yl)-2,5-diphenyltetrazolium bromide), which is a colorimetric method for determining the number of viable cells in various assays including proliferation, cytotoxicity, or chemosensitivity. The MTT reagent was added to the cells after removal of the medium and incubated for 3 h at 37 °C in the CO2 incubator. The formazan product, which is […] in the tissue culture medium, was dissolved in DMSO, and the absorbance of the formazan product was directly measured at 595 nm using a multimode plate reader without additional processing. The absorbance values are directly proportional to the number of viable cells in culture. The percentage of viable cells in each group was determined relative to the untreated control cells.
For orientation: Formazan colour is commonly taken as a measure of viable cells.

The mark [1] stands for this setting: Table 1, MDA-MB-231, MTT, read-out: Cell Viability (%) ± SD.
[2] abbreviates: Table 2, MDA-MB-231, MTT, read-out: Cell viability (%) ± SD.

Like-named read-outs stand apart in the source and are kept apart here.

As for `Cc1ccc(-c2cc(O)n3nccc3n2)cc1` [Compound 4a], under setting [1], the viability (commonly a read-out of living cells in per cent, often relative to untreated cells) at 10 µM amounted to 91.4 ± 4.38%; the viability at 25 µM came out at 85.5 ± 3.74%; the viability at 50 µM was 84.4 ± 2.16%.
On to `COc1ccc(-c2cc(O)n3nccc3n2)cc1` [Compound 4b], for which, under setting [1], the viability at 10 µM amounted to 85.1 ± 8.53%, the viability at 25 µM turned out to be 80.1 ± 3.51% and the viability at 50 µM stood at 70.5 ± 5.69%.
For the molecule `Oc1cc(-c2ccc(Br)cc2)nc2ccnn12` [Compound 4c], under setting [1], the viability at 10 µM came out at 100 ± 4.01%, the viability at 25 µM was 99.1 ± 3.93% and the viability at 50 µM amounted to 96.5 ± 2.89%.
In the same order, the values of `Oc1cc(-c2ccc(Cl)cc2)nc2ccnn12` [Compound 4d] are 98.6 ± 2.25%, 95.2 ± 1.96% and 87.2 ± 9.22%.
Consider `Oc1cc(-c2ccc(F)cc2)nc2ccnn12` [Compound 4e], for which, under setting [1], the viability at 10 µM is 86.6 ± 9.76%, the viability at 25 µM came out at 78.1 ± 3.51% and the viability at 50 µM was determined as 69.5 ± 5.69%.
In the same order, the values of `Oc1cc(-c2ccc(C(F)(F)F)cc2)nc2ccnn12` [Compound 4f] are 92.2 ± 8.51%, 88.8 ± 8.75% and 72.8 ± 7.02%.
`CC(C)c1ccc(-c2cc(O)n3nccc3n2)cc1` [Compound 4g, 5-(4-isopropylphenyl)pyrazolo[1,5-a]pyrimidin-7-ol]: under setting [1], the viability at 10 µM is 101 ± 5.51%, the viability at 25 µM was 98.1 ± 2.51% and the viability at 50 µM came to 70.5 ± 5.69%.
In the same order, the values of `Oc1cc(-c2ccc3ccccc3c2)nc2ccnn12` [Compound 4h] are 89.1 ± 4.09%, 86.5 ± 2.58% and 84.4 ± 7.36%.
In the same order, the values of `Oc1cc(-c2ccc3c(c2)OCO3)nc2ccnn12` [Compound 4i] are 96.6 ± 3.36%, 89.1 ± 3.51% and 73.5 ± 6.69%.
Take `COc1ccc(-c2cc(OCc3cn([C@@H]4O[C@H](COC(C)=O)[C@@H](OC(C)=O)[C@H](OC(C)=O)[C@H]4OC(C)=O)nn3)n3nccc3n2)cc1` [Compound 9b, (2R,3R,4S,5R,6R)-2-(acetoxymethyl)-6-(4-(((5-(4-methoxyphenyl)pyrazolo[1,5-a]pyrimidin-7-yl)oxy)methyl)-1H-1,2,3-triazol-1-yl)tetrahydro-2H-pyran-3,4,5-triyl triacetate]: under setting [2], the viability at 10 µM was 95.4 ± 5.38%, the viability at 25 µM is 85.5 ± 6.74% and the viability at 50 µM turned out to be 83.4 ± 4.16%.
In the same order, the values of `CC(=O)OC[C@H]1O[C@@H](n2cc(COc3cc(-c4ccc(Br)cc4)nc4ccnn34)nn2)[C@H](OC(C)=O)[C@@H](OC(C)=O)[C@@H]1OC(C)=O` [Compound 9c, (2R,3R,4S,5R,6R)-2-(acetoxymethyl)-6-(4-(((5-(4-bromophenyl)pyrazolo[1,5-a]pyrimidin-7-yl)oxy)methyl)-1H-1,2,3-triazol-1-yl)tetrahydro-2H-pyran-3,4,5-triyl triacetate] are 100 ± 8.01%, 100 ± 8.93% and 99.5 ± 2.89%.
As to `CC(=O)OC[C@H]1O[C@@H](n2cc(COc3cc(-c4ccc(F)cc4)nc4ccnn34)nn2)[C@H](OC(C)=O)[C@@H](OC(C)=O)[C@@H]1OC(C)=O` [Compound 9e, (2R,3R,4S,5R,6R)-2-(acetoxymethyl)-6-(4-(((5-(4-fluorophenyl)pyrazolo[1,5-a]pyrimidin-7-yl)oxy)methyl)-1H-1,2,3-triazol-1-yl)tetrahydro-2H-pyran-3,4,5-triyl triacetate], under setting [2], the viability at 10 µM amounted to 98.6 ± 2.25%, the viability at 25 µM came to 92.2 ± 1.96% and the viability at 50 µM is 81.2 ± 9.22%.
On the same counts, the results for `CC(=O)OC[C@H]1O[C@@H](n2cc(COc3cc(-c4ccc(C(F)(F)F)cc4)nc4ccnn34)nn2)[C@H](OC(C)=O)[C@@H](OC(C)=O)[C@@H]1OC(C)=O` [Compound 9f, (2R,3R,4S,5R,6R)-2-(acetoxymethyl)-6-(4-(((5-(4-(trifluoromethyl)phenyl)pyrazolo[1,5-a]pyrimidin-7-yl)oxy)methyl)-1H-1,2,3-triazol-1-yl)tetrahydro-2H-pyran-3,4,5-triyl triacetate] are 92.2 ± 8.51%, 88.8 ± 8.75% and 73.8 ± 7.02%.
In the same order, the values of `CC(=O)OC[C@H]1O[C@@H](n2cc(COc3cc(-c4ccc(C(C)C)cc4)nc4ccnn34)nn2)[C@H](OC(C)=O)[C@@H](OC(C)=O)[C@@H]1OC(C)=O` [Compound 9g, (2R,3R,4S,5R,6R)-2-(acetoxymethyl)-6-(4-(((5-(4-isopropylphenyl)pyrazolo[1,5-a]pyrimidin-7-yl)oxy)methyl)-1H-1,2,3-triazol-1-yl)tetrahydro-2H-pyran-3,4,5-triyl triacetate] are 110 ± 13.5%, 103 ± 3.51% and 68.5 ± 17.7%.
On the same counts, the results for `CC(=O)OC[C@H]1O[C@@H](n2cc(COc3cc(-c4ccc5c(c4)OCO5)nc4ccnn34)nn2)[C@H](OC(C)=O)[C@@H](OC(C)=O)[C@@H]1OC(C)=O` [Compound 9i, (2R,3R,4S,5R,6R)-2-(acetoxymethyl)-6-(4-(((5-(benzo[d][1,3]dioxol-5-yl)pyrazolo[1,5-a]pyrimidin-7-yl)oxy)methyl)-1H-1,2,3-triazol-1-yl)tetrahydro-2H-pyran-3,4,5-triyl triacetate] are 85.1 ± 4.09%, 82.5 ± 2.58% and 80.4 ± 7.36%.
Regarding `CC(=O)OC[C@H]1O[C@@H](n2cc(COc3cc(-c4ccc(C)cc4)nc4ccnn34)nn2)[C@H](OC(C)=O)[C@@H](OC(C)=O)[C@H]1OC(C)=O` [Compound 10a, (2R,3S,4S,5R,6R)-2-(acetoxymethyl)-6-(4-(((5-(p-tolyl)pyrazolo[1,5-a]pyrimidin-7-yl)oxy)methyl)-1H-1,2,3-triazol-1-yl)tetrahydro-2H-pyran-3,4,5-triyl triacetate], under setting [2], the viability at 10 µM was determined as 81.7 ± 8.36%, the viability at 25 µM came out at 78.5 ± 6.73% and the viability at 50 µM is 68.8 ± 10.4%.
On the same counts, the results for `COc1ccc(-c2cc(OCc3cn([C@@H]4O[C@H](COC(C)=O)[C@H](OC(C)=O)[C@H](OC(C)=O)[C@H]4OC(C)=O)nn3)n3nccc3n2)cc1` [Compound 10b, (2R,3S,4S,5R,6R)-2-(acetoxymethyl)-6-(4-(((5-(4-methoxyphenyl)pyrazolo[1,5-a]pyrimidin-7-yl)oxy)methyl)-1H-1,2,3-triazol-1-yl)tetrahydro-2H-pyran-3,4,5-triyl triacetate] are 92.5 ± 9.39%, 85.2 ± 8.63% and 70.5 ± 6.24%.
On the same counts, the results for `CC(=O)OC[C@H]1O[C@@H](n2cc(COc3cc(-c4ccc(Br)cc4)nc4ccnn34)nn2)[C@H](OC(C)=O)[C@@H](OC(C)=O)[C@H]1OC(C)=O` [Compound 10c, (2R,3S,4S,5R,6R)-2-(acetoxymethyl)-6-(4-(((5-(4-bromophenyl)pyrazolo[1,5-a]pyrimidin-7-yl)oxy)methyl)-1H-1,2,3-triazol-1-yl)tetrahydro-2H-pyran-3,4,5-triyl triacetate] are 79.5 ± 2.43%, 77.8 ± 2.43% and 74 ± 2.62%.
As for `CC(=O)OC[C@H]1O[C@@H](n2cc(COc3cc(-c4ccc(F)cc4)nc4ccnn34)nn2)[C@H](OC(C)=O)[C@@H](OC(C)=O)[C@H]1OC(C)=O` [Compound 10e, (2R,3S,4S,5R,6R)-2-(acetoxymethyl)-6-(4-(((5-(4-fluorophenyl)pyrazolo[1,5-a]pyrimidin-7-yl)oxy)methyl)-1H-1,2,3-triazol-1-yl)tetrahydro-2H-pyran-3,4,5-triyl triacetate], under setting [2], the viability at 10 µM is 78.4 ± 9.97%, the viability at 25 µM was 68.6 ± 10.1% and the viability at 50 µM stood at 71.3 ± 6.17%.
In the same order, the values of `CC(=O)OC[C@H]1O[C@@H](n2cc(COc3cc(-c4ccc(C(C)C)cc4)nc4ccnn34)nn2)[C@H](OC(C)=O)[C@@H](OC(C)=O)[C@H]1OC(C)=O` [Compound 10g, (2R,3S,4S,5R,6R)-2-(acetoxymethyl)-6-(4-(((5-(4-isopropylphenyl)pyrazolo[1,5-a]pyrimidin-7-yl)oxy)methyl)-1H-1,2,3-triazol-1-yl)tetrahydro-2H-pyran-3,4,5-triyl triacetate] are 85.2 ± 3.5%, 79.5 ± 8.96% and 78.7 ± 2.56%.
